Experimental data published in patent publication US20200095296A1, “USE OF PEPTIDES AS BIOMARKERS IN THE DIAGNOSIS, CONFIRMATION AND TREATMENT OF A NEUROLOGICAL DISORDER AND TCR AND/OR HLA IMMUNOPROFILING IN NEURODEGENERATIVE DISEASE” (THE TRUSTEES OF COLUMBIA UNIVERSITY IN THE CITY OF NEW YORK, priority 2017, published 2020).
Substitutions are numbered along the chain they refer to. Read-outs that look alike come from different tables or passages of the source.

Experiments:
DPB1*04:02 = target: T1, DPB1*04:02 (Homo sapiens, UniProt P04440+P20036, A65V/A84D/A85E/L207M); assay: competition binding assay, purified HLA DPB1*04:02
T1 sequence (P04440 30-258 A65V/A84D/A85E/L207M): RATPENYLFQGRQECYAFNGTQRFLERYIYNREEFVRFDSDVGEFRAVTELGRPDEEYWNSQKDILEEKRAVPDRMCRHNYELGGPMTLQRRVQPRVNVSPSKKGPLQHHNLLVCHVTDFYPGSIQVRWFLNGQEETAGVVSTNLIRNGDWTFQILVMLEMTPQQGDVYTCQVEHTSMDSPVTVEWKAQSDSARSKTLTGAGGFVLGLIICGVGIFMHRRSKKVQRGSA
T1 sequence (P20036 29-260): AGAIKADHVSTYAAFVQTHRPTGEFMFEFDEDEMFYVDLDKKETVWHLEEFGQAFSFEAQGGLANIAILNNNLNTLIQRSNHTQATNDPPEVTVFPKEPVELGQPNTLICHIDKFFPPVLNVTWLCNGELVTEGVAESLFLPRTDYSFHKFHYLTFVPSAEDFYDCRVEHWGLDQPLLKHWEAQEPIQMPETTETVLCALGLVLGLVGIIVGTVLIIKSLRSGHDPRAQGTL

DPB1*03:01 = target: T2, DPB1*03:01 (Homo sapiens, UniProt P04440+P20036, A65V/A84D/A85E/E86D/F38Y/G113D/G114E/G40L/I94L/L37V/M105V/M116V/P115A/R125K/T199I); assay: competition binding assay, purified HLA DPB1*03:01; settings: purified HLA, radiolabeled peptide competition; nM; read-out: binding to DPB1*03:01 (IC50)
T2 sequence (P20036 29-260): T1 sequence (P20036 29-260)
T2 sequence (P04440 30-258 L37V/F38Y/G40L/A65V/A84D/A85E/E86D/I94L/M105V/G113D/G114E/P115A/M116V/R125K/T199I): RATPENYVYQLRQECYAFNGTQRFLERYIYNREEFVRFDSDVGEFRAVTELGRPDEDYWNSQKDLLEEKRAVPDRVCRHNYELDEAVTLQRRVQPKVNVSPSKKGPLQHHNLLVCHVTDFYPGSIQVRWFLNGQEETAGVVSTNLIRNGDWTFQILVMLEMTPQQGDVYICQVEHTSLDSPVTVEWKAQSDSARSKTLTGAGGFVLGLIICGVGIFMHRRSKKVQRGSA

DPB1*02:01 = target: T3, DPB1*02:01 (Homo sapiens, UniProt P04440+P20036, A65V/A84D/A85E/K98E); assay: competition binding assay, purified HLA DPB1*02:01
T3 sequence (P20036 29-260): T1 sequence (P20036 29-260)
T3 sequence (P04440 30-258 A65V/A84D/A85E/K98E): T1 sequence (P04440 30-258 A65V/A84D/A85E/L207M) with K69E, M178L

DPB1*04:01 = target: T4, DPB1*04:01 (Homo sapiens, UniProt P04440); assay: competition binding assay, purified HLA DPB1*04:01
T4 sequence (P04440 30-258): T1 sequence (P04440 30-258 A65V/A84D/A85E/L207M) with V36A, D55A, E56A, M178L
T4 sequence (P20036 29-260 partner): T1 sequence (P20036 29-260)

DPB1*05:01 = target: T5, DPB1*05:01 (Homo sapiens, UniProt P04440+P20036, A65V/A84E/F191V/F64L/G113D/G114E/K142R/L158P/M116V/M62Q/P115A/Q81R/R125K/T114A/T199I/T259P/V234M); assay: competition binding assay, purified HLA DPB1*05:01
T5 sequence (P20036 29-260 M62Q/Q81R/T114A/K142R/L158P/F191V/T259P): T1 sequence (P20036 29-260) with M34Q, Q53R, T86A, K114R, L130P, F163V, T231P
T5 sequence (P04440 30-258 F64L/A65V/A84E/G113D/G114E/P115A/M116V/R125K/T199I/V234M): T2 sequence (P04440 30-258 L37V/F38Y/G40L/A65V/A84D/A85E/E86D/I94L/M105V/G113D/G114E/P115A/M116V/R125K/T199I) with V8L, Y9F, L11G, F35L, D55E, E56A, D57E, L65I, V76M, V205M

DRB5*01:01 = DRB5*01:01 (Homo sapiens, UniProt P01903+Q30154); assay: competition binding assay, purified HLA DRB5*01:01; settings: purified HLA, radiolabeled peptide competition; nM; read-out: binding to DRB5*01:01 (IC50)
DRB4*01:01 = DRB4*01:01 (Homo sapiens, UniProt P01903+P13762, G164S); assay: competition binding assay, purified HLA DRB4*01:01; settings: purified HLA, radiolabeled peptide competition; nM; read-out: binding to DRB4*01:01 (IC50)
HLA A*11:01 = HLA A*11:01 (Homo sapiens, UniProt P04439, A114D/D185E/E176A/F33Y/L180Q/S129P/T187R); assay: competition binding assay, purified HLA A*11:01 molecules; settings: in vitro
PBMC = assay: IFNγ and IL-5 dual ELISPOT after 14 days culture of PBMC with α-syn peptide pools; type: cell-based, human; settings: IFNγ and IL-5 ELISPOT
Method: To determine whether α-syn derived peptides were recognized by T cells, responses were assayed to pools that each contained ˜twenty 9-10aa peptides predicted to bind common HLA class I types 15, and 15aa peptides spanning the protein that could elicit HLA class II responses. PBMCs from PD and HC were stimulated for 14 days, and IFNγ and IL-5 responses were measured by dual color ELISPOT, enabling quantification of responsive cells. Positive pools were deconvoluted to identify the peptides eliciting cytokine responses. IFNγ was used as a representative cytokine to detect CD8+/HLA class I and CD4+ Th1/Class II T cells, and IL-5 as a representative cytokine secreted by CD4+ Th2/Class II T cells. […] No cells producing both IL-5 and IFNγ were detected. […]
After 14 days of culture with individual peptide pools (5 μg/ml), the response to pools and individual peptides (5 μg/ml) was measured by IFNγ and IL-5 dual ELISPOT 37. […]
To determine whether α-syn-derived peptides were recognized by T cells, responses to pools that each contained approximately twenty peptides of 9-10 amino acids (a.a.) predicted to bind common HLA class I types, (Vita, R. et al. The immune epitope database (IEDB) 3.0. Nucleic Acids Res. 43, D405-D412 (2015)) and peptides of 15 amino acids spanning the protein that could elicit HLA class II responses were assayed. […] No cells producing both IL-5 and IFNγ were detected. […]

[1] = purified HLA, radiolabeled peptide competition, nM, read-out: binding to DPB1*04:02 (IC50)
[2] = purified HLA, radiolabeled peptide competition, nM, read-out: binding to DPB1*02:01 (IC50)
[3] = purified HLA, radiolabeled peptide competition, nM, read-out: binding to DPB1*04:01 (IC50)
[4] = purified HLA, radiolabeled peptide competition, nM, read-out: binding to DPB1*05:01 (IC50)

| Compound | IC50 (DPB1*04:02; [1]) | IC50 (DPB1*03:01) | IC50 (DPB1*02:01; [2]) | IC50 (DPB1*04:01; [3]) | IC50 (DPB1*05:01; [4]) | other results |
| --- | --- | --- | --- | --- | --- | --- |
| GVLYVGSKTK [α-syn 10 mer aa36-45] |  |  |  |  |  | binding to purified HLA A*11:01 molecules (IC50) (HLA A*11:01): bound poorly |
| GKTKEGVLYVGSKTK [α-syn 15 mer aa31-45, Y39 region] |  |  |  |  |  | cytokine response elicited (PBMC): apparent Class II restricted IL-5 and IFNγ response; cytokine response elicited (PBMC; listed as GKEGVLYVGSKTK): apparent class II restricted IL-5 and IFNy response |
| CC(C)C[C@H](NC(=O)[C@@H](NC(=O)CNC(=O)[C@H](CCC(=O)O)NC(=O)[C@H](CCCCN)NC(=O)[C@@H](NC(=O)[C@@H](N)CCCCN)[C@@H](C)O)C(C)C)C(=O)N[C@@H](Cc1ccc(OP(=O)(O)O)cc1)C(=O)N[C@H](C(=O)NCC(=O)N[C@@H](CO)C(=O)N[C@@H](CCCCN)C(=O)N[C@H](C(=O)N[C@@H](CCCCN)C(=O)N[C@@H](CCC(=O)O)C(=O)O)[C@@H](C)O)C(C)C |  |  |  |  |  | IC50 (DPB1*04:02): 1600 nM; IC50 (DPB1*02:01): 620 nM; IC50 (DPB1*04:01): 937 nM; IC50 (DPB1*05:01): 777 nM |
| VLYVGSKTKK [10 mer aa37-46] |  |  |  |  |  | binding to purified HLA A*11:01 molecules (IC50) (HLA A*11:01): bound poorly |

Continued, in another order:

| IC50 (DPB1*04:02; [1]) | IC50 (DPB1*03:01) | IC50 (DPB1*02:01; [2]) | IC50 (DPB1*04:01; [3]) | IC50 (DPB1*05:01; [4]) | Compound | other results |
| --- | --- | --- | --- | --- | --- | --- |
| > 10000 nM | > 10000 nM | > 10000 nM | > 10000 nM | > 10000 nM | CSCC[C@H](NC(=O)[C@H](CCC(=O)O)NC(=O)[C@H](Cc1ccc(O)cc1)NC(=O)[C@H](C)NC(=O)[C@H](CCC(=O)O)NC(=O)[C@H](CC(N)=O)NC(=O)[C@H](CC(=O)O)NC(=O)[C@@H]1CCCN1C(=O)[C@H](CC(=O)O)NC(=O)[C@@H](NC(=O)[C@@H]1CCCN1C(=O)[C@@H](N)CCSC)C(C)C)C(=O)N1CCC[C@H]1C(=O)N[C@@H](CO)C(=O)N[C@@H](CCC(=O)O)C(=O)O |  |
| > 10000 nM | > 10000 nM | > 10000 nM | > 10000 nM | > 10000 nM | CSCC[C@H](NC(=O)[C@H](CCC(=O)O)NC(=O)[C@H](Cc1ccc(O)cc1)NC(=O)[C@H](C)NC(=O)[C@H](CCC(=O)O)NC(=O)[C@H](CC(N)=O)NC(=O)[C@H](CC(=O)O)NC(=O)[C@@H]1CCCN1C(=O)[C@H](CC(=O)O)NC(=O)[C@@H](NC(=O)[C@@H]1CCCN1C(=O)[C@@H](N)CCSC)C(C)C)C(=O)N1CCC[C@H]1C(=O)N[C@@H](COP(=O)(O)O)C(=O)N[C@@H](CCC(=O)O)C(=O)O | IC50 (DRB5*01:01): > 10000 nM; IC50 (DRB4*01:01): > 10000 nM |
| > 10000 nM | > 10000 nM | > 10000 nM | > 10000 nM | > 10000 nM | CSCC[C@H](NC(=O)[C@@H](N)CCC(=O)O)C(=O)N1CCC[C@H]1C(=O)N[C@@H](CO)C(=O)N[C@@H](CCC(=O)O)C(=O)N[C@@H](CCC(=O)O)C(=O)NCC(=O)N[C@@H](Cc1ccc(O)cc1)C(=O)N[C@@H](CCC(N)=O)C(=O)N[C@@H](CC(=O)O)C(=O)N[C@@H](Cc1ccc(O)cc1)C(=O)N[C@@H](CCC(=O)O)C(=O)N1CCC[C@H]1C(=O)N[C@@H](CCC(=O)O)C(=O)N[C@@H](C)C(=O)O |  |
